Publication PMC5218480 (PLoS ONE, 2017)

Test system: MV-4-11 cells
Test: Gene expression microarray analysis (Affymetrix PrimeView) and GSEA
Type: cell-based, human
Set-up: RFU PODN (11730768_x_at) / Fold change /veh PODN (11730768_x_at) / RFU LINC00158 (11744669_a_at) / Fold change /veh LINC00158 (11744669_a_at) / RFU DUSP10 (11751237_a_at) / Fold change /veh DUSP10 (11751237_a_at) / RFU ID3 (11757404_x_at) / Fold change /veh ID3 (11757404_x_at) / RFU PLEKHG5 (11737974_s_at) / Fold change /veh PLEKHG5 (11737974_s_at) / RFU LRRC4B (11730491_at) / Fold change /veh LRRC4B (11730491_at) / RFU GIMAP4 (11747438_a_at) / Fold change /veh GIMAP4 (11747438_a_at) / RFU KRT8 (11758183_x_at) / Fold change /veh KRT8 (11758183_x_at) / RFU CNN1 (11734310_a_at) / Fold change /veh CNN1 (11734310_a_at) / RFU VPS37D (11726825_at) / Fold change /veh VPS37D (11726825_at) / RFU C10orf10 (11716522_x_at) / Fold change /veh C10orf10 (11716522_x_at) / RFU KIR2DL2 /// KIR2DL4 /// KIR2DL5A /// KIR2DL5B /// KIR2DS1 /// KIR2DS2 /// KIR2DS3 /// KIR2DS4 /// KIR3DL3 /// KIR3DL3 /// KIR3DS1 (11738374_at) / Fold change /veh KIR2DL2 /// KIR2DL4 /// KIR2DL5A /// KIR2DL5B /// KIR2DS1 /// KIR2DS2 /// KIR2DS3 /// KIR2DS4 /// KIR3DL3 /// KIR3DL3 /// KIR3DS1 (11738374_at) / RFU C1QL1 (11718748_at) / Fold change /veh C1QL1 (11718748_at) / RFU TMPRSS4 (11747572_a_at) / Fold change /veh TMPRSS4 (11747572_a_at) / RFU HAMP (11756126_x_at) / Fold change /veh HAMP (11756126_x_at) / RFU RNFT2 (11725882_a_at) / Fold change /veh RNFT2 (11725882_a_at) / RFU NR4A2 (11747474_a_at) / Fold change /veh NR4A2 (11747474_a_at) / RFU ABCC12 (11746883_a_at) / Fold change /veh ABCC12 (11746883_a_at) / RFU TMEM136 (11760407_x_at) / Fold change /veh TMEM136 (11760407_x_at) / RFU CLDN22 /// WWC2 (11732394_at) / Fold change /veh CLDN22 /// WWC2 (11732394_at) / RFU HLA-DPB1 (11760878_x_at) / Fold change /veh HLA-DPB1 (11760878_x_at) / RFU SPINT1 (11716480_a_at) / Fold change /veh SPINT1 (11716480_a_at) / RFU GAP43 (11754022_s_at) / Fold change /veh GAP43 (11754022_s_at) / RFU A4GNT (11735810_at) / Fold change /veh A4GNT (11735810_at) / RFU PRB3 (11715151_x_at) / Fold change /veh PRB3 (11715151_x_at) / RFU TUBB4B (11761932_at) / Fold change /veh TUBB4B (11761932_at) / RFU CAPN14 (11732068_a_at) / Fold change /veh CAPN14 (11732068_a_at) / RFU TMCC2 (11721928_a_at) / Fold change /veh TMCC2 (11721928_a_at) / RFU IRGQ (11745062_a_at) / Fold change /veh IRGQ (11745062_a_at) / RFU FAM174B (11720279_a_at) / Fold change /veh FAM174B (11720279_a_at) / RFU TMPRSS4 (11748680_a_at) / Fold change /veh TMPRSS4 (11748680_a_at) / RFU FAM212B (11763350_a_at) / Fold change /veh FAM212B (11763350_a_at) / RFU PLEKHG5 (11743358_a_at) / Fold change /veh PLEKHG5 (11743358_a_at) / RFU ZSCAN30 (11745921_a_at) / Fold change /veh ZSCAN30 (11745921_a_at) / RFU CMKLR1 (11741424_a_at) / Fold change /veh CMKLR1 (11741424_a_at) / RFU LOC101060620 /// MAPK8IP1 (11723275_at) / Fold change /veh LOC101060620 /// MAPK8IP1 (11723275_at) / RFU SPTSSB (11747773_x_at) / Fold change /veh SPTSSB (11747773_x_at) / RFU PRSS12 (11739890_at) / Fold change /veh PRSS12 (11739890_at) / RFU BIN1 (11741810_x_at) / Fold change /veh BIN1 (11741810_x_at) / RFU WNT11 (11732464_a_at) / Fold change /veh WNT11 (11732464_a_at) / RFU C10orf10 (11716521_a_at) / Fold change /veh C10orf10 (11716521_a_at) / RFU C5orf56 (11738089_at) / Fold change /veh C5orf56 (11738089_at) / RFU CYB561 (11721691_x_at) / Fold change /veh CYB561 (11721691_x_at) / RFU ANKRD19P (11752326_a_at) / Fold change /veh ANKRD19P (11752326_a_at) / RFU OR2T12 /// OR2T33 /// OR2T8 (11738714_s_at) / Fold change /veh OR2T12 /// OR2T33 /// OR2T8 (11738714_s_at) / RFU VCAN (11748164_a_at) / Fold change /veh VCAN (11748164_a_at) / RFU JSRP1 (11732532_at) / Fold change /veh JSRP1 (11732532_at) / RFU KRTAP10-11 (11738290_x_at) / Fold change /veh KRTAP10-11 (11738290_x_at) / RFU MYO3A (11730013_a_at) / Fold change /veh MYO3A (11730013_a_at) / RFU EBF3 (11725865_a_at) / Fold change /veh EBF3 (11725865_a_at) / RFU CAMK2N1 (11719241_x_at) / Fold change /veh CAMK2N1 (11719241_x_at) / RFU C5orf56 (11738088_a_at) / Fold change /veh C5orf56 (11738088_a_at) / RFU OLFML3 (11715873_a_at) / Fold change /veh OLFML3 (11715873_a_at) / RFU LOC100653217 /// NTM (11731650_a_at) / Fold change /veh LOC100653217 /// NTM (11731650_a_at) / RFU MAPK11 (11762145_a_at) / Fold change /veh MAPK11 (11762145_a_at) / RFU FIZ1 (11724087_x_at) / Fold change /veh FIZ1 (11724087_x_at) / RFU OASL (11726364_x_at) / Fold change /veh OASL (11726364_x_at) / RFU SOX15 (11748057_x_at) / Fold change /veh SOX15 (11748057_x_at) / RFU CD79A (11719716_a_at) / Fold change /veh CD79A (11719716_a_at) / RFU HIST1H1D (11736915_at) / Fold change /veh HIST1H1D (11736915_at) / RFU CASKIN2 (11723855_a_at) / Fold change /veh CASKIN2 (11723855_a_at) / RFU LOC730098 (11760151_x_at) / Fold change /veh LOC730098 (11760151_x_at) / RFU OR4N2 (11742367_at) / Fold change /veh OR4N2 (11742367_at) / RFU PRRT2 (11749266_a_at) / Fold change /veh PRRT2 (11749266_a_at) / RFU SNX32 (11753110_a_at) / Fold change /veh SNX32 (11753110_a_at) / RFU CDHR5 (11726645_a_at) / Fold change /veh CDHR5 (11726645_a_at) / RFU RCAN1 (11760418_a_at) / Fold change /veh RCAN1 (11760418_a_at) / RFU FAM167A (11723789_a_at) / Fold change /veh FAM167A (11723789_a_at) / RFU FAM26E (11764081_at) / Fold change /veh FAM26E (11764081_at) / RFU ISYNA1 (11749810_s_at) / Fold change /veh ISYNA1 (11749810_s_at) / RFU ACY1 (11761880_at) / Fold change /veh ACY1 (11761880_at) / RFU 11764098_at / Fold change /veh 11764098_at / RFU SAMD14 (11745864_x_at) / Fold change /veh SAMD14 (11745864_x_at) / RFU NPB (11741838_a_at) / Fold change /veh NPB (11741838_a_at) / RFU TMPRSS6 (11731388_a_at) / Fold change /veh TMPRSS6 (11731388_a_at) / RFU KRTAP10-2 (11738614_at) / Fold change /veh KRTAP10-2 (11738614_at) / RFU ARHGAP8 /// PRR5-ARHGAP8 (11727945_x_at) / Fold change /veh ARHGAP8 /// PRR5-ARHGAP8 (11727945_x_at) / RFU KRTAP5-7 /// NADSYN1 (11734609_at) / Fold change /veh KRTAP5-7 /// NADSYN1 (11734609_at) / RFU RASL12 (11751679_a_at) / Fold change /veh RASL12 (11751679_a_at) / RFU CDKN2B (11736163_a_at) / Fold change /veh CDKN2B (11736163_a_at) / RFU PRF1 (11729649_at) / Fold change /veh PRF1 (11729649_at) / RFU, ZNF638 /// ZNF638-IT1 / Fold change vs veh, ZNF638 /// ZNF638-IT1 / RFU, PANK3 / Fold change vs veh, PANK3 / RFU, SH3YL1 / Fold change vs veh, SH3YL1 / RFU, ZEB2 / Fold change vs veh, ZEB2 / RFU, NRIP1 / Fold change vs veh, NRIP1 / RFU, PTTG1IP / Fold change vs veh, PTTG1IP / RFU, CAPN2 / Fold change vs veh, CAPN2 / RFU, MED14 / Fold change vs veh, MED14 / RFU, SNORA58 / Fold change vs veh, SNORA58 / RFU, C1orf63 / Fold change vs veh, C1orf63 / RFU, LRRFIP1 / Fold change vs veh, LRRFIP1 / RFU, NDUFAF7 / Fold change vs veh, NDUFAF7 / RFU, SLC12A2 / Fold change vs veh, SLC12A2 / RFU, IBTK / Fold change vs veh, IBTK / RFU, ESF1 / Fold change vs veh, ESF1 / Fold change vs veh, TMEM50B / RFU, TAOK1 / Fold change vs veh, TAOK1 / RFU, ACBD3 / Fold change vs veh, ACBD3 / RFU, TMA16 / Fold change vs veh, TMA16 / RFU, RWDD3 / Fold change vs veh, RWDD3 / RFU, BCAT1 / Fold change vs veh, BCAT1 / RFU, EDEM3 / Fold change vs veh, EDEM3 / RFU, TMEM33 / Fold change vs veh, TMEM33 / RFU, WDR75 / Fold change vs veh, WDR75 / RFU, AHCTF1 / Fold change vs veh, AHCTF1 / RFU, TFRC / Fold change vs veh, TFRC / RFU, ZDHHC17 / Fold change vs veh, ZDHHC17 / RFU, NOM1 / Fold change vs veh, NOM1 / RFU, ARL8B / Fold change vs veh, ARL8B / RFU, ZBTB11 / Fold change vs veh, ZBTB11 / RFU, TAMM41 / Fold change vs veh, TAMM41 / RFU, KIAA1704 /// LOC100996395 / Fold change vs veh, KIAA1704 /// LOC100996395 / RFU, ING1 / Fold change vs veh, ING1 / RFU, TRMT61B / Fold change vs veh, TRMT61B / RFU, FUBP3 / Fold change vs veh, FUBP3 / RFU, TP53 / Fold change vs veh, TP53 / RFU, TNKS2 / Fold change vs veh, TNKS2 / RFU, ZFP14 / Fold change vs veh, ZFP14 / RFU, ACTR2 / Fold change vs veh, ACTR2 / RFU, PPP3R1 / Fold change vs veh, PPP3R1 / RFU, PIK3R1 / Fold change vs veh, PIK3R1 / RFU, HNRNPA1 / Fold change vs veh, HNRNPA1 / RFU, RNF170 / Fold change vs veh, RNF170 / RFU, ZNF28 / Fold change vs veh, ZNF28 / RFU, RNGTT / Fold change vs veh, RNGTT / RFU, OGT / Fold change vs veh, OGT / RFU, BRD1 / Fold change vs veh, BRD1 / RFU, MARS / Fold change vs veh, MARS / RFU, ZNF655 / Fold change vs veh, ZNF655 / RFU, FAHD1 / Fold change vs veh, FAHD1 / RFU, BDP1 / Fold change vs veh, BDP1 / RFU, LRRCC1 / Fold change vs veh, LRRCC1 / RFU, ARID1A / Fold change vs veh, ARID1A / RFU, ZNF146 / Fold change vs veh, ZNF146 / RFU, ZNF330 / Fold change vs veh, ZNF330 / RFU, GPN3 / Fold change vs veh, GPN3 / RFU, C9orf123 / Fold change vs veh, C9orf123 / RFU, N4BP2L2 / Fold change vs veh, N4BP2L2 / RFU, ARFIP1 / Fold change vs veh, ARFIP1 / RFU, FAM179B / Fold change vs veh, FAM179B / RFU, BCL10 / Fold change vs veh, BCL10 / RFU, UHRF1BP1L / Fold change vs veh, UHRF1BP1L / RFU, BET1 / Fold change vs veh, BET1 / RFU, CNOT2 / Fold change vs veh, CNOT2 / RFU, ZNF268 / Fold change vs veh, ZNF268 / Fold change vs veh, ZNF507 / RFU, DGCR2 / Fold change vs veh, DGCR2 / RFU, WDSUB1 / Fold change vs veh, WDSUB1 / Fold change vs veh, HSP90B1 /// MIR3652 / RFU, ADSS / Fold change vs veh, ADSS / RFU, GK / Fold change vs veh, GK / RFU, ZNF148 / Fold change vs veh, ZNF148 / RFU, TAF9 / Fold change vs veh, TAF9 / RFU, SLC1A5 / Fold change vs veh, SLC1A5 / RFU, SLMO2 / Fold change vs veh, SLMO2 / RFU, ABCC4 / Fold change vs veh, ABCC4 / RFU, LOC101060439 /// RAP1B / Fold change vs veh, LOC101060439 /// RAP1B / RFU, RFX7 / Fold change vs veh, RFX7 / RFU, GTPBP10 / Fold change vs veh, GTPBP10 / RFU, CNEP1R1 / Fold change vs veh, CNEP1R1 / RFU, BIVM-ERCC5 /// ERCC5 / Fold change vs veh, BIVM-ERCC5 /// ERCC5 / RFU, ILF3 / Fold change vs veh, ILF3 / RFU 11762660_at / Fold change /veh 11762660_at / RFU VCAN (11757783_s_at) / Fold change /veh VCAN (11757783_s_at) / RFU DDX43 (11728927_at) / Fold change /veh DDX43 (11728927_at) / RFU KRT8 (11758188_x_at) / Fold change /veh KRT8 (11758188_x_at) / RFU NKD1 (11759106_at) / Fold change /veh NKD1 (11759106_at) / RFU SRD5A1 (11742802_a_at) / Fold change /veh SRD5A1 (11742802_a_at) / RFU TPSAB1 /// TPSB2 (11721975_s_at) / Fold change /veh TPSAB1 /// TPSB2 (11721975_s_at) / RFU GSTM3 (11746129_a_at) / Fold change /veh GSTM3 (11746129_a_at) / RFU IL23R (11737362_x_at) / Fold change /veh IL23R (11737362_x_at) / RFU TMEM51 (11727254_a_at) / Fold change /veh TMEM51 (11727254_a_at) / RFU PIWIL2 (11732686_x_at) / Fold change /veh PIWIL2 (11732686_x_at) / RFU ORM1 (11744905_x_at) / Fold change /veh ORM1 (11744905_x_at) / RFU CCDC152 (11743942_at) / Fold change /veh CCDC152 (11743942_at) / RFU ECM1 (11717891_a_at) / Fold change /veh ECM1 (11717891_a_at) / RFU IL23R (11748794_a_at) / Fold change /veh IL23R (11748794_a_at) / RFU TNFAIP8L3 (11732012_x_at) / Fold change /veh TNFAIP8L3 (11732012_x_at) / RFU MBOAT4 (11741988_at) / Fold change /veh MBOAT4 (11741988_at) / RFU 11764193_at / Fold change /veh 11764193_at / RFU TMEM53 (11763286_at) / Fold change /veh TMEM53 (11763286_at) / RFU MAGEB2 (11727129_at) / Fold change /veh MAGEB2 (11727129_at) / RFU TMEM200A (11744735_a_at) / Fold change /veh TMEM200A (11744735_a_at) / RFU CCDC152 (11751479_a_at) / Fold change /veh CCDC152 (11751479_a_at) / RFU FAM211A (11726209_a_at) / Fold change /veh FAM211A (11726209_a_at) / RFU RGS16 (11746705_a_at) / Fold change /veh RGS16 (11746705_a_at) / RFU VCAN (11755009_s_at) / Fold change /veh VCAN (11755009_s_at) / RFU RHOB (11743442_s_at) / Fold change /veh RHOB (11743442_s_at) / RFU RGS16 (11720943_a_at) / Fold change /veh RGS16 (11720943_a_at) / RFU RGS16 (11720944_at) / Fold change /veh RGS16 (11720944_at) / RFU, VPS4B / Fold change vs veh, VPS4B / RFU, CREB1 / Fold change vs veh, CREB1 / RFU, DNAJC13 / Fold change vs veh, DNAJC13 / RFU, GNAQ / Fold change vs veh, GNAQ / RFU, CDK5R1 / Fold change vs veh, CDK5R1 / RFU, ZRANB3 / Fold change vs veh, ZRANB3 / RFU, CUL4A / Fold change vs veh, CUL4A / RFU, CCNY / Fold change vs veh, CCNY / RFU, UFL1 / Fold change vs veh, UFL1 / RFU, COG3 / Fold change vs veh, COG3 / RFU, DIAPH2 / Fold change vs veh, DIAPH2 / RFU, SKA2 / Fold change vs veh, SKA2 / RFU, AFF3 / Fold change vs veh, AFF3 / RFU, LMF1 / Fold change vs veh, LMF1 / RFU, IPO11 / Fold change vs veh, IPO11 / RFU, DFFB / Fold change vs veh, DFFB / RFU, FOXP1 / Fold change vs veh, FOXP1 / RFU, CARD8 / Fold change vs veh, CARD8 / RFU, STRN3 / Fold change vs veh, STRN3 / RFU, ADK / Fold change vs veh, ADK / RFU, RASSF2 / Fold change vs veh, RASSF2 / RFU, WIPF1 / Fold change vs veh, WIPF1 / RFU, LARP1B / Fold change vs veh, LARP1B / RFU, RASA1 / Fold change vs veh, RASA1 / RFU, RB1 / Fold change vs veh, RB1 / RFU, PPFIA1 / Fold change vs veh, PPFIA1 / RFU, MAT2A / Fold change vs veh, MAT2A / RFU, CCT5 / Fold change vs veh, CCT5 / RFU, WDR92 / Fold change vs veh, WDR92 / RFU, CUX1 / Fold change vs veh, CUX1 / RFU, TTC7A / Fold change vs veh, TTC7A / RFU, TMEM135 / Fold change vs veh, TMEM135 / RFU, DEPTOR / Fold change vs veh, DEPTOR / RFU, CPM / Fold change vs veh, CPM / RFU, DNAJB6 / Fold change vs veh, DNAJB6 / RFU, CACNA2D3 / Fold change vs veh, CACNA2D3 / RFU, DTX4 / Fold change vs veh, DTX4 / RFU, TFCP2 / Fold change vs veh, TFCP2 / RFU, GMCL1 /// GMCL1P1 / Fold change vs veh, GMCL1 /// GMCL1P1 / RFU, AEBP2 / Fold change vs veh, AEBP2 / RFU, SNHG1 /// SNORD22 /// SNORD25 /// SNORD26 /// SNORD27 /// SNORD28 /// SNORD29 /// SNORD31 / Fold change vs veh, SNHG1 /// SNORD22 /// SNORD25 /// SNORD26 /// SNORD27 /// SNORD28 /// SNORD29 /// SNORD31 / Fold change (Aza/veh), C12orf56 (ProbeSet 11735607_a_at) / Fold change (ACY-1035/veh), C12orf56 (ProbeSet 11735607_a_at) / Fold change (Aza/veh), FGFR1OP (ProbeSet 11751329_s_at) / Fold change (ACY-1035/veh), FGFR1OP (ProbeSet 11751329_s_at) / Fold change (Aza/veh), VPS36 (ProbeSet 11739960_a_at) / Fold change (ACY-1035/veh), VPS36 (ProbeSet 11739960_a_at) / RFU SYPL1 (11715823_x_at) / Fold change /veh SYPL1 (11715823_x_at) / RFU IGFBP7 (11715501_s_at) / Fold change /veh IGFBP7 (11715501_s_at) / RFU REEP3 (11722064_at) / Fold change /veh REEP3 (11722064_at) / RFU IGLL1 (11728026_x_at) / Fold change /veh IGLL1 (11728026_x_at): dose or concentration left out as unconfirmed
Details: MV-4-11 cells, 48 hours

In the case of `Nc1ncn([C@@H]2O[C@H](CO)[C@@H](O)[C@H]2O)c(=O)n1` [azacitidine], the “RFU FAM212B (11763350_a_at)” value is reported as 32.55 RFU.
